Source: a melting point compilation (Tetko et al.; mined from patent text by program, amines drawn as free bases though some values may be those of a salt)

Structure (SMILES) | melting point [°C]
CCCCc1nc2c(c(C)c(C)n3nnnc23)n1CC(C)(C)N | 144 to 147
Nc1nc2c(c3[nH]cnc13)CCCC2 | > 300
COc1ccc(C)cc1NC(=O)Nc1ccc(N2CCN(C(=O)Nc3c(C)cccc3C(=O)O)CC2)cc1 | 159 to 160
COCCOc1ccc(CCCOC(=O)NS(=O)(=O)NCCOC(C)C)c(Oc2ncc(Cl)cc2Cl)c1 | 87.5 to 88.4
CC1(C)Oc2ccc(S(=O)(=O)C(F)(F)F)cc2[C@@H](N2Cc3ccc([N+](=O)[O-])cc3C2=O)[C@@H]1O (relative stereo) | 264 to 266
O=c1c2ccccc2sc2c(OCc3ccccc3)ccc(Cl)c12 | 139 to 140
NP(N)(=O)OCC(Cl)(Cl)Cl | 86 to 87
COCCc1nc2c(N)nc3cc(-c4ccccc4)ccc3c2n1CCCN1CCCC1=O | 187 to 191
O=C1C=C(c2ccccc2O)CC1 | 162 to 165
CC1(C)CON(Cc2ccc(NC(=O)C3CC3)cc2Cl)C1=O | 191 to 193
CCOCCn1c(NC2CCN(CCC3(c4ccccc4)CCN(C(=O)c4cc(OC)c(OC)c(OC)c4)C3)CC2)nc2ccccc21 (single isomer, unassigned; (-)) | 106 to 117
CCCN1CC(CN2CC(=O)NC2=O)CC2c3cccc4[nH]cc(c34)CC21 (centres undefined) | 168 to 170
N[C@]1(C(=O)O)C=C[C@H]2[C@H](C(=O)O)[C@H]21 | > 250
Clc1cccc(-c2ncoc2-c2ccncc2)c1 | 125 to 126
CC(=O)Nc1c(C(=O)c2ccc(O)c(O)c2)[nH]c2cc(Cl)ccc12 | 193 to 200
CC(C)C(=O)Nc1c(N)cc(Br)cc1OCc1ccccc1 | 214 to 215
COC(=O)c1ccc2c(c(C)nn2C)c1C1=NC(C)(C(C)C)C(=O)N1 (centres undefined) | 130 to 150
CCCCCCCCCCCCCCCCCCOc1ccc(OCCCc2ccccc2)c(C(=O)N(CC(=O)OCC)CC(=O)OCC)c1 | 54 to 55
COc1cccc(CNC(=O)c2nc3ccc(O)cc3c(=O)[nH]2)c1 | 268 to 271
CCOCC1COc2cc3c(O)c(C#N)cnc3cc2O1 (centres undefined) | 248 to 254
CN(C)C(=O)CCC(=O)c1ccccc1 | 56 to 58
Oc1ccc2c(c1)Oc1cc(O)ccc1C2(C(F)(F)F)C(F)(F)F | 209 to 210
CCCOCCOC(=O)C1=C(C)NC(C)=C(S(=O)(=O)N(C)CCOC)C1c1cccc([N+](=O)[O-])c1 (centres undefined) | 67 to 70

Structure (SMILES) | melting point [°C]
CCOC(=O)c1ccccc1Nc1ccc(OC)cc1C | 42 to 43
CN1C(=O)C(NC(=S)Nc2ccccc2)N=C(c2ccccc2)c2ccccc21 (centres undefined) | 209 to 211
COc1cc(-c2ncc(C(F)(F)F)cc2Cl)c(F)cc1Cl | 105 to 106
Clc1ccccc1-c1n[nH]c(-c2ccccc2Cl)n1 | 159 to 160
CC1(C)CCC(C)(C)C2=C1CC(Cl)C(C)(O)C2 (centres undefined) | 122 to 124
COc1cc2c(cc1CCCCN(C)C)[nH]c1cc(-c3ccccc3Cl)c3c(c12)C(=O)NC3=O | 162 to 164
CN(C(=S)Nc1ccc(NNC=O)cc1)c1ccccc1 | 137 to 139
N#Cc1nc2ccc(Oc3ccc(C(F)(F)F)cc3Cl)cc2[nH]1 | 192
CCCN(c1cccc(-c2ccnc3c([N+](=O)[O-])cnn23)c1)S(=O)(=O)c1ccc(OC)cc1 | 184 to 185
OCc1nnc2n1-c1ccc(Cl)cc1C(c1ccccc1)=NC2 | 204 to 206
Cn1c(=O)c2c(ncn2CC(O)Cc2noc(CCN3CCCCC3)n2)n(C)c1=O (centres undefined) | 110 to 111
O=c1n(CCCN2CCC(n3c(=O)[nH]c4ccccc43)CC2)nc2n1-c1ccccc1OC2 | 176 to 178
CCCc1c(OCCCOc2cc(OCC(=O)OC)ccc2C(C)=O)ccc(C(C)=O)c1O | 103 to 106
O=C(O)c1cccc(Nc2nc(Oc3ccccc3)nc(Oc3ccccc3Cl)n2)c1 | 250 to 252
O=[N+]([O-])c1ccc(-c2ccc([N+](=O)[O-])cc2C(F)(F)F)c(C(F)(F)F)c1 | 140
CC(C)COC[C@H](CC(C)C)NC(=O)[C@H]1O[C@@H]1C(=O)OC(C)C | 36 to 38
CSc1nc2cc(Cl)c(Cl)cc2n1C1OC(CO)C(O)C1O (centres undefined) | 204 to 206
COC(=O)[C@H](Cc1c[nH]cn1)NC(=O)[C@H](Cc1ccccc1)NC(=O)OCc1ccccc1 | 113 to 116
O=C(O)Cc1cc(Cl)cc(Cl)c1OCCc1ccccc1 | 73 to 76
NC(=S)NCc1ccco1 | 80 to 91
O=[N+]([O-])c1ccc2c(c1)CNCCS2 | 104 to 105
O=C(NCC(O)c1cccc(OCc2ccc3ccccc3n2)c1)c1ccccn1 (centres undefined) | 126 to 129
CN(C)CCNC(=O)c1cn(C)c(=O)c2cc3cccnc3nc12 | 218 to 221

Structure (SMILES) | melting point [°C]
COc1cc(NC(=O)Oc2ccccc2)ccc1S(=O)(=O)n1c(=O)n(C2CCCCC2)c2cc(Cl)ccc21 | 236
CCCCC(Cc1ccc(OCCNC(=O)c2ccc(Oc3ccccc3)nc2)cc1)C(=O)O (centres undefined) | 124 to 125
CCOc1nn(-c2ccccc2Cl)c(=O)o1 | 45
CON=Cc1ccc(-c2cc(F)cc(F)c2NC(=O)c2c(C)nn(C)c2F)cc1 | 164 to 167
CC(C)(NC(=O)c1nc2ccc(NCCCN3CCC(OC(c4ccccc4)c4ccccc4)CC3)nn2n1)C(=O)O | 247 to 249
CCc1nc2c(N)nc3cc(OCCc4c[nH]c5ccccc45)ccc3c2s1 | 218 to 220
C=CC(=O)NCC(C(C)=O)C(=O)c1ccccc1 (centres undefined) | 125 to 126
O=c1nc(-c2cccc(CCOP(=O)(O)O)n2)sc2ccccc12 | 235 to 237
CC(=CCO)c1ccc(C2CCCCC2)cc1 | 54 to 55
O=[N+]([O-])c1cc(C(F)(F)F)ccc1C(Br)c1cnoc1C1CC1 (centres undefined) | 146
Cc1cc(OC/C=C(/c2ccc(Cl)cc2)c2ccc(C#CCN3CCC(CO)CC3)cc2)ccc1OCC(=O)O | 94 to 104
O=C(c1ccc(Cl)cc1)c1ccccc1N=C=S | 162 to 166
CSc1ccc2c3c(cccc13)C(=O)N2C(C)C | 70 to 71
COC(CCc1ccc(Cl)cc1Cl)(Cn1cncn1)C(C)(C)C1OCCCO1 (centres undefined) | 130 to 132
CN(C)C1CCc2[nH]c3cc(O)ccc3c2C1 (centres undefined) | 286 to 288
Oc1c2c(nn1-c1ccccn1)CCCC2 | 121 to 122
O=C(O)CC1(C(=O)O)CCc2cc3ccccc3n2C1 (centres undefined) | 185 to 188
CCOC(=O)C1C(C)=NC(N2CCCC2)=C(C(=O)OC(C)C)C1c1ccccc1C(F)(F)F (centres undefined) | 102
CC(=O)N[C@@H](C)COC1CCN(c2nc3cc(OCC4CC4)ccc3s2)CC1 | 115 to 116
CN1CCN(c2nc3sc4c(NCCN5CCOCC5)ncnc4c3c3c2CCC(C)(C)C3)CC1 | 150 to 151
COc1ccccc1[C@@]1(O)[C@H](O)CC(c2ccccc2)(c2ccccc2)[C@@H]2CN(C(=O)Cc3cn(C)c4ccccc34)C[C@@H]21 (racemic) | 240
C=CCN(CC=C)C(=O)n1cnc(S(=O)(=O)CCCCC)n1 | 28 to 30
COc1cc(N2C(=S)N3CCCCC3C2O)c(F)cc1Cl (centres undefined) | 208 to 215
